The results in this text go back to patent publication US20240270762A1, “PENICILLIN-BINDING PROTEIN INHIBITORS” (priority 2021, published 2024).

Values after ≈ are worked out from the molar mass of the structure shown.

Assay [1] has as its system E. coli AG100. Kind of assay: microbe, parasite or virus in culture. The following applies: Escherichia coli, AG100, read-out: MIC E. coli AG100. Format: cell-based.
Assay [2] deals with E. coli 901C. Put plainly: microbe, parasite or virus in culture. Type of assay: cell-based. The following applies: Escherichia coli, read-out: MIC E. coli 901C.
The subject of assay [3] is E. coli D22. Put plainly: microbe, parasite or virus in culture. Particulars: Escherichia coli, D22, read-out: MIC E. coli D22. Format: cell-based.
For assay [4], the system named is K. pneumoniae UMM. Put plainly: microbe, parasite or virus in culture. Format: cell-based. Particulars: Klebsiella pneumoniae, read-out: MIC K. pneumoniae UMM.
Assay [5] has as its system K. pneumoniae SI-117. Put plainly: microbe, parasite or virus in culture. The following applies: Klebsiella pneumoniae, SI117, read-out: MIC K. pneumoniae SI-117. Format: cell-based.
Assay [6] concerns P. aeruginosa ATCC 27853. Put plainly: microbe, parasite or virus in culture. Format: cell-based. Particulars: Pseudomonas aeruginosa, ATCC27853, read-out: MIC P. aeruginosa ATCC 27853.
In assay [7] the test system is P. aeruginosa ATCC 35151. Put plainly: microbe, parasite or virus in culture. Format: cell-based. Particulars: Pseudomonas aeruginosa, ATCC35151, read-out: MIC P. aeruginosa ATCC 35151.
Assay [8] relates to N. gonorrhoeae FA1090. Put plainly: Liquid broth MIC in Fastidious broth. The following applies: Neisseria gonorrhoeae, FA1090, read-out: Minimum Inhibitory Concentration (MIC), N. gonorrhoeae FA 1090.
For assay [9], the system named is N. gonorrhoeae MS11. Kind of assay: Liquid broth MIC in Fastidious broth. Particulars: Neisseria gonorrhoeae, MS11, read-out: Minimum Inhibitory Concentration (MIC), N. gonorrhoeae MS11.
Assay [10] relates to N. gonorrhoeae WHO G. Kind of assay: Liquid broth MIC in Fastidious broth. Particulars: Neisseria gonorrhoeae, read-out: Minimum Inhibitory Concentration (MIC), N. gonorrhoeae WHO G.
Assay [11] relates to N. gonorrhoeae WHO L. Put plainly: Liquid broth MIC in Fastidious broth. The following applies: Neisseria gonorrhoeae, read-out: Minimum Inhibitory Concentration (MIC), N. gonorrhoeae WHO L.
The subject of assay [12] is N. gonorrhoeae WHO K. Put plainly: Liquid broth MIC in Fastidious broth. Particulars: Neisseria gonorrhoeae, read-out: Minimum Inhibitory Concentration (MIC), N. gonorrhoeae WHO K.
Assay [13] relates to N. gonorrhoeae WHO Z. Kind of assay: Liquid broth MIC in Fastidious broth. The following applies: Neisseria gonorrhoeae, read-out: Minimum Inhibitory Concentration (MIC), N. gonorrhoeae WHO Z.

On to `O=C(O)c1cccc2c1OB(O)[C@@H](NC(=O)C(NC(=O)c1ccc[nH]c1=O)c1ccc(P(=O)(O)O)cc1)C2` (stereo partly drawn) [Example 174, (3R)-2-hydroxy-3-(2-(2-oxo-1,2-dihydropyridine-3-carboxamido)-2-(4-phosphonophenyl)acetamido)-3,4-dihydro-2H-benzo[e][1,2]oxaborinine-8-carboxylic acid], for which the MIC in [1] was more than 128 µg/mL; in [2], 8 to 16 µg/mL (≈ 14.8 to 29.6 µM); in assay [3], 32 to 64 µg/mL (≈ 59.1 to 118 µM); in assay [4], more than 128 µg/mL; in assay [5], more than 128 µg/mL; in assay [6], more than 128 µg/mL. For the same molecule, the MIC was 2 to 4 µg/mL (≈ 3.7 to 7.39 µM) in assay [7]; 1 to 2 µg/mL (≈ 1.85 to 3.7 µM) in assay [8]; 4 to 8 µg/mL (≈ 7.39 to 14.8 µM) in assay [9]; 1 to 2 µg/mL (≈ 1.85 to 3.7 µM) in assay [10]; 16 to 32 µg/mL (≈ 29.6 to 59.1 µM) in [11]; 16 to 32 µg/mL (≈ 29.6 to 59.1 µM) in [12]. In [13], the MIC fell in the range of 16 to 32 µg/mL (≈ 29.6 to 59.1 µM).
For the molecule `O=C(O)c1cccc2c1OB(O)[C@@H](NC(=O)[C@H](NC(=O)c1c[nH]ccc1=O)c1ccc(P(=O)(O)O)cc1)C2` [Example 175, (R)-2-hydroxy-3-((R)-2-(4-oxo-1,4-dihydropyridine-3-carboxamido)-2-(4-phosphonophenyl)acetamido)-3,4-dihydro-2H-benzo[e][1,2]oxaborinine-8-carboxylic acid], the MIC in assay [1] was in the range of 32 to 64 µg/mL (≈ 59.1 to 118 µM); in assay [2], 2 to 4 µg/mL (≈ 3.7 to 7.39 µM); in assay [3] it was 8 to 16 µg/mL (≈ 14.8 to 29.6 µM); in assay [4], 32 to 64 µg/mL (≈ 59.1 to 118 µM); in [5], 32 to 64 µg/mL (≈ 59.1 to 118 µM); in assay [6], 32 to 64 µg/mL (≈ 59.1 to 118 µM). Moreover, the MIC in [7] is less than 1 µg/mL; in assay [8] it was less than 1 µg/mL; in assay [9] it was 1 to 2 µg/mL (≈ 1.85 to 3.7 µM); in [10], 1 to 2 µg/mL (≈ 1.85 to 3.7 µM); in assay [11], 16 to 32 µg/mL (≈ 29.6 to 59.1 µM); in assay [12] it was 16 to 32 µg/mL (≈ 29.6 to 59.1 µM). In assay [13], the MIC is 4 to 8 µg/mL (≈ 7.39 to 14.8 µM).
As to `O=C(O)c1cccc2c1OB(O)[C@@H](NC(=O)C(NC(=O)c1cnc[nH]c1=O)c1ccc(P(=O)(O)O)cc1)C2` (stereo partly drawn) [Example 176, (3R)-2-hydroxy-3-(2-(6-oxo-1,6-dihydropyrimidine-5-carboxamido)-2-(4-phosphonophenyl)acetamido)-3,4-dihydro-2H-benzo[e][1,2]oxaborinine-8-carboxylic acid], the MIC in assay [1] is more than 128 µg/mL; in assay [2] it was 8 to 16 µg/mL (≈ 14.8 to 29.5 µM); in assay [3], more than 128 µg/mL; in assay [4], more than 128 µg/mL; in assay [5], more than 128 µg/mL; in [6] it was 32 to 64 µg/mL (≈ 59 to 118 µM). For the same molecule, the MIC in assay [7] fell in the range of 2 to 4 µg/mL (≈ 3.69 to 7.38 µM); in assay [8] it was 1 to 2 µg/mL (≈ 1.84 to 3.69 µM); in assay [9], 4 to 8 µg/mL (≈ 7.38 to 14.8 µM); in assay [10] it was 4 to 8 µg/mL (≈ 7.38 to 14.8 µM); in assay [11] it was 16 to 32 µg/mL (≈ 29.5 to 59 µM); in assay [12], 16 to 32 µg/mL (≈ 29.5 to 59 µM). Also, the MIC in assay [13] is 16 to 32 µg/mL (≈ 29.5 to 59 µM).
Take `N#Cc1ccnc(C(=O)NC(C(=O)N[C@H]2Cc3cccc(C(=O)O)c3OB2O)c2ccc(P(=O)(O)O)cc2)c1` (stereo partly drawn) [Example 179, (3R)-3-(2-(4-cyanopicolinamido)-2-(4-phosphonophenyl)acetamido)-2-hydroxy-3,4-dihydro-2H-benzo[e][1,2]oxaborinine-8-carboxylic acid]: the MIC in assay [1] was more than 128 µg/mL; in [2], 8 to 16 µg/mL (≈ 14.5 to 29.1 µM); in assay [3] it was 32 to 64 µg/mL (≈ 58.2 to 116 µM); in assay [4], more than 128 µg/mL; in assay [5], more than 128 µg/mL; in [6], more than 128 µg/mL. Moreover, the MIC in assay [7] fell in the range of 2 to 4 µg/mL (≈ 3.63 to 7.27 µM); in assay [8], 1 to 2 µg/mL (≈ 1.82 to 3.63 µM); in [9], 16 to 32 µg/mL (≈ 29.1 to 58.2 µM); in [10] it was 16 to 32 µg/mL (≈ 29.1 to 58.2 µM); in assay [11] it was 16 to 32 µg/mL (≈ 29.1 to 58.2 µM); in [12], 16 to 32 µg/mL (≈ 29.1 to 58.2 µM). Further, the MIC in assay [13] fell in the range of 16 to 32 µg/mL (≈ 29.1 to 58.2 µM).
